Measurements: US12577469B2, “Compound, composition, cured product, optically anisotropic body, optical element, and light guide element” (FUJIFILM Corporation, priority 2021, dated 2026)

Key:
[1] = Evaluation of liquid crystallinity of compound (hot stage, polarization microscope); format: physicochemical; set-up: key: A case of having liquid crystallinity was evaluated as A; a case of having no liquid crystallinity was evaluated as B; conditions: compound alone, heated on hot stage
Method: Each compound was heated on a hot stage and observed with a polarization microscope, and the phase transition temperature was measured to evaluate the presence or absence of liquid crystallinity. A case of having liquid crystallinity was evaluated as A, and a case of having no liquid crystallinity was evaluated as B. The results are shown in the column of “Liquid crystallinity” of “Compound 2” in Table 1.

[2] = Evaluation of solubility in cyclopentanone (precipitation concentration); format: physicochemical; conditions: precipitation concentration in cyclopentanone at room temperature (25° C.)

Compound 2 Liquid crystallinity [1] | Structure (SMILES) | Compound 2 Solubility [2]
A | C=CC(=O)OCCSc1ccc(C#Cc2ccc(OCc3ccc(C#Cc4ccc(COc5ccc(C#Cc6ccc(SCCOC(=O)C=C)cc6)cc5C(=O)OC)cc4)cc3)c(C(=O)OC)c2)cc1 [Compound B-4] | A (the solubility in a case where the precipitation concentration was more than 5% by mass was evaluated as A)
A | CC(=O)OCCc1ccc(C#Cc2ccc(OCc3ccc(C#Cc4ccc(COc5ccc(C#Cc6ccc(CCOC(C)=O)cc6)cc5C)cc4)cc3)c(C)c2)cc1 [Compound B-1] | B (the solubility in a case where the precipitation concentration was 5% by mass or less was evaluated as B)
A | C=CC(=O)OCCSc1ccc(C#Cc2ccc(OCc3ccc(C#Cc4ccc(COc5ccc(C#Cc6ccc(SCCOC(=O)C=C)cc6)cc5C)cc4)cc3)c(C)c2)cc1 [Compound B-3] | B (the solubility in a case where the precipitation concentration was 5% by mass or less was evaluated as B)
A | C=CC(=O)OCCc1ccc(C#Cc2ccc(OCc3ccc(C#Cc4ccc(COc5ccc(C#Cc6ccc(CCOC(=O)C=C)cc6)cc5C)cc4)cc3)c(C)c2)cc1 [Compound B-2] | B (the solubility in a case where the precipitation concentration was 5% by mass or less was evaluated as B)
